Bounds are passed on as bounds.

The subject of one experiment is HCT116 cells. The experiment is described as follows: Cell viability assay (CellTiter-Glo, 72 hours) in HCT116 human colorectal cancer cells. It is filed as cell-based. The conditions noted are these: Homo sapiens, HCT-116; Table 5; HCT116, 72 hours; read-out: Activity. Summed up:
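Ten-point IC50 came from an asymmetric five-parameter fit of luminescence corrected to vehicle wells. ATP content was measured by CellTiter-Glo 72 h after dosing at 37 °C. Cells were seeded at 2,000/well the day before, with 0.5% DMSO in all wells.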
(In general: In ATP-based viability assays light output follows the ATP content of the culture.)
As for `CC#CCN1C(=O)c2ccccc2Sc2cc(Nc3ncccc3C(F)(F)F)ccc21` [10-(But-2-yn-1-yl)-7-((3-(trifluoromethyl)pyridin-2-yl)amino)dibenzo[b,f][1,4]thiazepin-11 (10H)-one], the IC50 is under 500 nM.

Regarding `CC#CCN1C(=O)c2ccc(F)cc2Sc2cc(Nc3ncccc3C3CC3)ccc21` [10-(But-2-yn-1-yl)-7-((3-cyclopropylpyridin-2-yl)amino)-3-fluorodibenzo[b,f][1,4]thiazepin-11 (10H)-one], the IC50 was under 500 nM.

With `CC#CCN1C(=O)c2ccccc2Cc2cc(Nc3ncccc3C#N)ccc21` [2-((5-(But-2-yn-1-yl)-6-oxo-6,11-dihydro-5H-dibenzo[b,e]azepin-2-yl)amino) nicotinonitrile], the IC50 was under 500 nM.

Consider `CCC/C=C/CN1C(=O)c2ccccc2Sc2cc(Nc3nccnc3C)ccc21` [(E)-10-(Hex-2-en-1-yl)-7-((3-methylpyrazin-2-yl)amino)dibenzo[b,f][1,4]thiazepin-11 (10H)-one], for which the IC50 was under 500 nM.

Regarding `CC#CCN1C(=O)c2ccccc2Sc2cc(Nc3nccc(C)c3F)ccc21` [10-(But-2-yn-1-yl)-7-((3-fluoro-4-methylpyridin-2-yl)amino)dibenzo[b,f][1,4]thiazepin-11 (10H)-one], the IC50 was under 500 nM.

For `CCC/C=C/CN1C(=O)c2ccccc2Sc2cc(Nc3cc(C)ccn3)ccc21` [(E)-10-(Hex-2-en-1-yl)-7-((4-methylpyridin-2-yl)amino)dibenzo[b,f][1,4]thiazepin-11 (10H)-one], the IC50 fell in the range of 500 to 1000 nM.

Staying with this experiment, now noted: Table 3; HCT116, 72 hours; read-out: Activity.
For `CC#CCN1C(=O)c2ccccc2Sc2cc(NC(=O)Nc3cccc(OCF)c3)ccc21` [Table 3: —CH2CCMe; 3-FH2COPh; CH/CH], the IC50 was under 500 nM.

The experiment is the same for the next values; noted with them: Table 4; HCT116, 72 hours; read-out: Activity.
Take `CC#CCN1C(=O)c2ccccc2Sc2cc(NC(=S)N[C@H]3C[C@@H](OC)C3)cnc21` [Table 4: —CH2CCMe; cis-3-MeOcBu; N]: the IC50 was under 500 nM.

Still in this experiment, the particulars now being: Table 5; HCT116, 72 hours; read-out: Activity.
Take `CC#CCN1C(=O)c2ccccc2Sc2cc(Nc3ncc(C)cc3F)cnc21`: the IC50 was under 500 nM.

As to `Cc1cnc(C)c(Nc2cnc3c(c2)Sc2ccccc2C(=O)N3CC#CCl)n1`, the IC50 is under 500 nM.

Staying with this experiment, now noted: Table 6; HCT116, 72 hours; read-out: Activity.
Regarding `COCC1CC(Nc2ccc3c(c2)Sc2ccccc2C(=O)N3CC#CCl)C1` (centres unmarked), the IC50 is under 500 nM.

For the molecule `O=C1c2ccccc2Sc2cc(NC3CC4(COC4)C3)cnc2N1CC#CCl`, the IC50 was under 500 nM.

Consider `CC#CCN1C(=O)c2ccccc2Sc2cc(NC34CC(OC)(C3)C4)ccc21`, for which the IC50 was under 500 nM.

For the molecule `CC#CCN1C(=O)c2ccccc2Sc2cc(NC3COC3)cnc21` [Table 6: —CH2CCMe; oxetan-3-yl; CH/N; S], the IC50 was under 500 nM.

Staying with this experiment, now noted: Table 7; cell viability assay, CellTiter-Glo, 72 hours; scaffold drawing 42 with R^2, R^3, X/Y, Z; read-out: Activity.
For the molecule `COCCN1C(=O)c2ccccc2Sc2cc(NC(=O)c3ccc4oc(=O)n(C)c4c3)ccc21`, the IC50 was 500 to 1000 nM.

Consider `COCCN1C(=O)c2ccccc2Sc2cc(NC(=O)c3ccc(OC)c(F)c3)ccc21` [—(CH2)2OMe; 3-F,4MeOPh; CH/CH; S], for which the IC50 fell in the range of 500 to 1000 nM.

For `C#Cc1ccc(C(=O)Nc2ccc3c(c2)Sc2ccccc2C(=O)N3CCOC)cn1` [—(CH2)2OMe; 6-(HCC)pyrid-3-yl; CH/CH; S], the IC50 was in the range of 1000 to 5000 nM.

Regarding `COCCN1C(=O)c2ccccc2Sc2cc(NC(=O)c3cccc(OC)c3)ccc21` [—(CH2)2OMe; 3-MeOPh; CH/CH; S], the IC50 is under 500 nM.

With `COCCN1C(=O)c2ccccc2Sc2cc(NC(=O)c3ccc4nccn4c3)ccc21`, the IC50 is 1000 to 5000 nM.

Staying with this experiment, now noted: Table 8; analogs of scaffold drawing 43 defined by R^2, R^3, X/Y, W; read-out: Activity (IC50 class, cell viability assay).
`CC#CCN1C(=O)c2ccccc2Sc2cc(NC(=O)OCCOC)ccc21` [—CH2CCMe; O(CH2)2OMe; CH/CH; CH]: the IC50 is under 500 nM.

In the case of `O=C(Nc1ccc2c(c1)Sc1ccc(F)cc1C(=O)N2CC#CCl)C1CC2(CC(=NO)C2)C1` (centres unmarked), the IC50 is under 500 nM.

For the molecule `CC#CCN1C(=O)c2ccccc2Sc2cc(NC(=O)c3ccc(OC)cc3)ccc21` [—CH2CCMe; 4-MeOPh; CH/CH; CH], the IC50 is under 500 nM.

For the molecule `CO[C@H]1C[C@H](C(=O)Nc2cnc3c(c2)Sc2ccccc2C(=O)N3CC#CC(F)(F)F)C1` [—CH2CCCF3; trans-3-MeOcBu; CH/CH; N], the IC50 is under 500 nM.

`O=C1CC2(C1)CC(C(=O)Nc1cnc3c(c1)Sc1ccccc1C(=O)N3CC#CC1CC1)C2`: the IC50 is under 500 nM.

For the molecule `CC#CCN1C(=O)c2ccccc2Sc2cc(NC(=O)C3COC3)ccc21` [—CH2CCMe; oxetan-3-yl; CH/CH; CH], the IC50 was under 500 nM.

As to `C#CCN1C(=O)c2cc(F)ccc2Sc2cc(NC(=O)[C@H]3C[C@H](OC)C3)ccc21` [—CH2CCH; trans-3-MeOcBu; CH/CF; CH], the IC50 was under 500 nM.

For `O=C(Nc1cnc2c(c1)Sc1cc(Cl)ccc1C(=O)N2CC#CCl)C1CC2(CC(=NO)C2)C1` (centres unmarked), the IC50 is under 500 nM.

Consider `CC#CCN1C(=O)c2ccc(F)cc2Sc2cc(NC(=O)c3cccc(OC)c3)ccc21` [—CH2CCMe; 3-MeOPh; CF/CH; CH], for which the IC50 was under 500 nM.

`CC#CCN1C(=O)c2ccc(Cl)cc2Sc2cc(NC(=O)C(C)CCOC)ccc21` (centres unmarked) [—CH2CCMe; MeO(CH2)2CHMe-; CCI/CH; CH]: the IC50 is under 500 nM.

Turning to `CC#CCN1C(=O)c2cc(F)ccc2Sc2cc(NC(=O)C3CCCO3)ccc21` (centres unmarked), the IC50 is under 500 nM.

As to `CC#CCN1C(=O)c2cc(F)ccc2Sc2cc(NC(=O)[C@@H]3C[C@H]3CO)cnc21` (relative stereo) [—CH2CCMe; trans-2-HOCH2-cPr; CH/CF; N], the IC50 is under 500 nM.

As for `CC#CCN1C(=O)c2ccccc2Sc2cc(NC(=O)C3CCOC3)cnc21` (centres unmarked) [—CH2CCMe; tetrahydrofuran-3-yl; CH/CH; N], the IC50 was under 500 nM.

Take `CC#CCN1C(=O)c2cc(F)ccc2Sc2cc(NC(=O)C34CC(O)(C3)C4)cnc21`: the IC50 is under 500 nM.

In the case of `CC#CCN1C(=O)c2ccc(Cl)cc2Sc2cc(NC(=O)C3CCOC3)ccc21` (centres unmarked), the IC50 was under 500 nM.

On to `COCC=CC(=O)Nc1cnc2c(c1)Sc1ccccc1C(=O)N2CC#CC(F)(F)F` [—CH2CCCF3; CH═CHCH2OMe; CH/CH; N], for which the IC50 was under 500 nM.

As for `C#CCN1C(=O)c2cc(F)ccc2Sc2cc(NC(=O)C3CC4(CC(=NO)C4)C3)ccc21` (centres unmarked), the IC50 was under 500 nM.

On to `CC#CCN1C(=O)c2ccc(F)cc2Sc2cc(NC(=O)C3CCCO3)cnc21` (centres unmarked) [—CH2CCMe; tetrahydrofuran-2-yl; CF/CH; N], for which the IC50 is under 500 nM.

For the molecule `CC#CCN1C(=O)c2ccccc2Sc2cc(NC(=O)C34CC(C#N)(C3)C4)ccc21`, the IC50 is under 500 nM.

Staying with this experiment, now noted: Table 9; HCT116, 72 hours; read-out: Activity.
`CC#CCN1C(=O)c2ccccc2Cc2cc(NC(=O)C3CC4(CC(=NO)C4)C3)ccc21` (centres unmarked): the IC50 is under 500 nM.

Turning to `CC#CCN1C(=O)c2ccccc2C(C)c2cc(NC(=O)C(C)CCOC)ccc21` (centres unmarked) [Table 9: —CH2CCMe; MeO(CH2)2CHMe-; CHMe], the IC50 was under 500 nM.

Turning to `CC#CCN1C(=O)c2ccccc2C(C)c2cc(NC(=O)C3CC4(CC(=NO)C4)C3)ccc21` (centres unmarked), the IC50 is under 500 nM.

For the molecule `CC#CCN1C(=O)c2ccccc2C(C)(O)c2cc(NC(=O)c3ccc(OC)nc3)ccc21` (centres unmarked), the IC50 is under 500 nM.

On to `CC#CCN1C(=O)c2ccccc2C(C)c2cc(NC(=O)OCCOC)ccc21` (centres unmarked) [Table 9: —CH2CCMe; O(CH2)2OMe; CHMe], for which the IC50 is under 500 nM.

Regarding `C#CCN1C(=O)c2ccccc2C(C#N)c2cc(NC(=O)C3CC(COC)C3)ccc21` (centres unmarked) [Table 9: —CH2CCH; 3-MeOCH2-cBu; CHCN], the IC50 is under 500 nM.

The record behind these values is patent US20260097047A1, “Small molecule inhibitors of the ribosome biogenesis factor NVL2” (Board of Regents, The University of Texas System, priority 2023, published 2026).
